Laboratory results published in patent US20090130017A1, “Targeted short-lived drug delivery” (Searete LLC, priority 2007, published 2009).
Where two headings read alike, the source gives them in different places.

Key:
[1] = in vivo; cited from earlier work
[2] = cited from earlier work
[3] = estimated blood plasma concentration of oxaliplatin in systemic therapy for colon cancer; type: in vivo, human; conditions: 85 mg per meter-squared, 145 mg total dose, 65 kg person, 5 liters of blood, assuming even distribution and constant rate of elimination
[4] = rat, in vivo; cited from earlier work
[5] = cited from earlier work; remark: listed apart in the source
[6] = IV infusion of 20 mcg/kg over 24 hours

Q: With `Nc1ncnc2c1ncn2[C@@H]1O[C@H](CO)[C@@H](O)[C@H]1O` [Adenosine, adenosine] as the molecule, how does the “half-life (in words)” value [1] read?
A: a few seconds

Q: Which half-life ([2]; in human) does the source give for `O=C(O)CCCc1ccc(N(CCCl)CCCl)cc1` [Chlorambucil, chlorambucil] here?
A: about 1.5 hours

Q: Which half-life [1] does the source give for `CC[C@H]1OC(=O)[C@H](C)[C@@H](O[C@H]2C[C@@](C)(OC)[C@@H](O)[C@H](C)O2)[C@H](C)[C@@H](O[C@@H]2O[C@H](C)C[C@H](N(C)C)[C@H]2O)[C@](C)(O)C[C@@H](C)C(=O)[C@H](C)[C@@H](O)[C@]1(C)O` [Erythromycin, erythromycin] here?
A: approximately 1.5 hours

Q: Which half-life [1] does the source give for `N.N.O=C([O-])C1(C(=O)[O-])CCC1.[Pt+2]` [carboplatin] here?
A: 60 to 120 min

Q: For `COc1cc([C@@H]2c3cc4c(cc3[C@@H](O[C@@H]3O[C@@H]5CO[C@@H](C)O[C@H]5[C@H](O)[C@H]3O)[C@H]3COC(=O)[C@H]23)OCO4)cc(OC)c1O` [etoposide], which half-life ([2]; in children) is on record?
A: about 3 hours

Q: For `O=C1[O][Pt]2([NH][C@@H]3CCCC[C@H]3[NH]2)[O]C1=O` [oxaliplatin], which half-life [1] is on record?
A: 10 to 25 min

Q: And the blood plasma concentration [3]?
A: approximately 3 micrograms per milliliter

Q: Which half-life [1] does the source give for `COc1ccc(C(CN(C)C)C2(O)CCCCC2)cc1` (centres unmarked) [venlafaxine] here?
A: about 5 hours

Q: With NGF: nerve growth factor as the molecule, how does the serum half-life [4] read?
A: about 7.2 minutes

Q: Which half-life [1] does the source give for heparin here?
A: around 1.5 hours

Q: With streptokinase as the molecule, how does the half-life [1] read?
A: about 20 minutes

Q: Which circulation half-life [1] does the source give for tissue plasminogen activator [TPA] here?
A: approximately 5 minutes

B1: NEUPOGEN® (Filgrastim): colony stimulating factor product, normally used systemically (protein, chains of the INN, looked up)
chain: MTPLGPASSLPQSFLLKCLEQVRKIQGDGAALQEKLCATYKLCHPEELVLLGHSLGIPWAPLSSCPSQALQLAGCLSQLHSGLFLYQGLLQALEGISPELGPTLDTLQLDVADFATTIWQQMEELGMAPALQPTQGAMPAFASAFQRRAGGVLVASHLQSFLEVSYRVLRHLAQP
Q: For B1, which mean serum concentration [5, 6] is on record?
A: approximately 48 ng/mL

Q: And the median serum concentration [5, 6]?
A: ~56 ng/mL

Q: What about the maximum serum concentration ([5]; subcutaneous administration of 3.45 mcg/kg) of the same molecule?
A: 4 ng/mL

Q: What about the maximum serum concentration ([5]; subcutaneous administration of 11.5 mcg/kg) of the same molecule?
A: 49 ng/mL

Q: And the half-life [1]?
A: about 3.5 hours
